Marks after values point to notes of the source that are not given here.
Columns and labels:
Assay type in all cases: cell-based
[1] = test system: IL-17A secreted from antiCD3/CD28 stimulated Peripheral Blood Mononuclear cells (PBMC); assay: Peripheral Blood Mononucleocyte Cell Assay (PBMC Assay - IL-17); settings: Homo sapiens, 48 h, IL-17A release, read-out: mean pIC50 (converted)
Method: Peripheral Blood Mononucleocvte Cell Assay (PBMC Assay—IL-17) […]
This assay is designed to measure levels of IL-17A secreted from antiCD3/CD28 stimulated frozen Peripheral Blood Mononuclear cells (PBMC) isolated from human blood with the aim of identifying inhibitors of IL-17A release.
2. The compounds for screening are dispensed into a master plate at 10 mM top concentration which are serially diluted 1:3 across 11 points in DMSO, then 500 nL is transferred into a 384-well flat-bottomed Greiner plate to which 50 uL of cell suspension is added: for the single shot screening the highest concentration of compound is 10^−5M; for 11 point full curve dose response studies the highest concentration is 10^−4 M.
As a low control, DMSO (as supplied, for example, by VWR) (final concentration 1%) in column 6 (16 points).
As a high control, 5-(4-fluorophenyl)-2-ureidothiophene-3-carboxamide (obtainable from, for example, Sigma) at a final concentration of 10^−4 M in DMSO should be used in column 18 (16 points).
9. Make the cell suspension at the concentration 8×10^5 cells/mL to give a final number of 40,000 cells/well.
1. Add well mixed CD3/CD28 Dynabeads (as supplied, for example, by Dynal) to achieve ratio bead:cell=2:1 (ie. a dilution of 1 in 20). Mix thoroughly.
2. Dispense the suspension into the 384 Assay Plates using Multidrop (50 uL per well). If the volume of cell suspension is large, mix the suspension after dispensing into every other plate.
3. Cover the plates with the lids and place them to the humidified incubator (37° C., 5% CO2) for 48 hours.
1. Transfer 10 uL of supernatants from assay plates to the MSD plates using Cybiwell. Ensure that all wells are covered with the solution. Tap the plate gently, if some of the wells are not covered with the supernatant.
3. Add 10 uL of MSD IL-17 detecting antibody using multidrop (1 ug/mL in D-PBS without Ca^2+ and Mg^2+ (supplied, for example, by Gibco)).
4. Cover the plates with adhesive foil and incubated with shaking for 3 hours at room temperature
7. Add 35 uL of MSD Read Buffer T×2 using multidrop.
8. Read plates on MSD MA6000 reader using the 384 well plate protocol as per manufacturer's instructions.

IL-17A mRNA expression = assay: Ex-vivo human skin model, IL-17A mRNA expression; settings: for Percentage of inhibition of IL-17A mRNA expression: Th17 cytokine cocktail 24 h, RT-PCR
Method: (§1) Fresh ex vivo human skin from healthy bariatric patients, that underwent abdominoplasty skin removal, was de-fatted and dermatomed at 750 μm. Dermatomed skin was incubated twice for 5-10 minutes at room temperature in PBS containing a antibiotic/antimycotic solution: Fungizone (Invitrogen #15290018), PSG (Fisher #BW17718R) and Gentamicin (Invitrogen #15750060). Skin was treated aseptically from this point on. Individual skin samples were obtained by 10 mm punch biopsy and placed in a 0.4 μm PCF membrane transwell (Millicell #PIHP01250) containing 30 μl of a 64% bovine collagen solution. After a 30 minute incubation at 37° C., which allows the collagen solution time to set, skin samples on transwells were transferred to 6-well plates (1 sample per well) and the lower chamber filled with 1 ml complete media (Cornification Media)+hydrocortisone (final concentration of 0.4 μg/ml) with or without test compounds at 10 μM (day −3) and allowed to rest overnight (16-18 h) at 37° C. Next, media was aspirated from the lower chamber, replaced with 1 ml complete media without hydrocortisone and incubated at 37° C. for 1 h. This constituted a ‘wash’ step. Following the hydrocortisone washout, media was again aspirated from the lower chamber and replaced with 1.0 ml complete media without hydrocortisone with or without GSK compounds at 10 μM (day −2). Cultures were incubated at 37° C. in a humidified chamber and media was refreshed one more day (day-1). The following day (day-0), cultures were stimulated for 24 h with a freshly made Th17 cytokine cocktail (CD3, 1 μg/ml, CD28, 2 μg/ml, IL-1b, 10 ng/ml, IL-6, 5 ng/ml, TGFb, 1 ng/ml, IL-21, 10 ng/ml, anti-IL-4, 1 μg/ml and anti-INFg, 1 μg/ml) with or without test compounds at 10 μM. Upon harvest (day +1), skin samples were minced with a razor blade and transferred to 1.5 ml RNAse-free tubes with 1 ml RNAlater solution until later analysis by RT-PCR (stored at −80 C).
(§2) Total RNA was isolated from about 30-40 mg of tissue using Qiagen's (Cat #74106) Mini RNA Isolation kit. Briefly, tissue was homogenized in the Precellys-24 machine using 300 μL of RLT buffer supplemented with 1% 2-Beta-Mercapto-Ethanol at 6300 rpm for 30 seconds for 6 cycles with a 2-minute ice break. 600 μL of water containing Proteinase K was added to the homogenate and digested at 55 C for 15 minutes. Digested tissue was spun down for 3 minutes at 10,000×g and the supernantant was used for RNA isolation using Qiagen's RNeasy mini columns according to manufacturer's protocol. 100 ng of RNA was used as template in a 20 μL PCR volume using Applied Biosciences RNA-to-CT 1 Step kit (AB Catalog #4392938) as well as the specific TaqMan probe for each gene to be quantified. Life Technologies FAM labeled Probes Catalog Numbers are as follows: ACTb=Hs01060665_g1, IL-17A=Hs00174383_m1, IL-17F=Hs00369400_m1, IL-22=Hs01574154_m1. All probes used (except for ACTb) expand an Exon. Applied Biosciences' Master Mix has a ROX dye internal control. OneStepPlus PCR machine was used for both the RT step and the 40 amplification cycles. RNA levels of gene of interest's relative expression were calculated using the Delta Delta CT formula.
(§3) First delta: Normalized to ACTb gene expression
(§4) Second delta: Normalized to sample 13 (Day 0+DMSO) for the gene of interest.

IL-17F mRNA expression = assay: Ex-vivo human skin model, IL-17F mRNA expression; settings: for Percentage of inhibition of IL-17F mRNA expression: Th17 cytokine cocktail 24 h, RT-PCR
Method: as §1, §2, §3, §4

[2] = four different donors, compound 10 μM

## CCc1ccc(N(CC(C)C)S(=O)(=O)c2ccc([C@@H](O)CN3CCOCC3)c(CO)c2)cc1 [Example E126, N-(4-ethylphenyl)-4-(1-hydroxy-2-morpholinoethyl)-3-(hydroxymethyl)-N-isobutylbenzenesulfonamide]
[1]
  IC50: 794 nM
IL-17A mRNA expression; Skin Donor 1, compound 10 μM
  Percentage of inhibition of IL-17A mRNA expression: 76% *
IL-17A mRNA expression; Skin Donor 2, compound 10 μM
  Percentage of inhibition of IL-17A mRNA expression: 93% *
IL-17A mRNA expression; Skin Donor 3, compound 10 μM
  Percentage of inhibition of IL-17A mRNA expression: 60% *
IL-17A mRNA expression; Skin Donor 4, compound 10 μM
  Percentage of inhibition of IL-17A mRNA expression: 85% *
IL-17A mRNA expression; [2]
  gene transcription of il17a (result in words): inhibited
IL-17F mRNA expression; Skin Donor 1, compound 10 μM
  Percentage of inhibition of IL-17F mRNA expression: 67% *
IL-17F mRNA expression; Skin Donor 2, compound 10 μM
  Percentage of inhibition of IL-17F mRNA expression: 89% *
IL-17F mRNA expression; Skin Donor 3, compound 10 μM
  Percentage of inhibition of IL-17F mRNA expression: 67% *
IL-17F mRNA expression; Skin Donor 4, compound 10 μM
  Percentage of inhibition of IL-17F mRNA expression: 74% *
IL-17F mRNA expression; [2]
  gene transcription of il17f (result in words): inhibited

— patent US9428452B2, “Compounds” (Glaxo Group Limited, priority 2012, dated 2016)
